A short description of data set [1]: Stability of formulations F4, F7 and F10 (HPLC). It is filed as physicochemical. The settings on record: F4, F7 and F10, ambient temperature and 4° C., 24 hours. How it is done:
To investigate the stability of formulation F4, F7 and F10 they were stored at ambient temperature and at 4° C. Samples were taken out at time zero (initial) and after 24 hours and diluted 10 times with water prior to HPLC analysis. The results were compared to the standard peptide 0.5 mg/ml in water (STD).

Data set [2] can be described thus: Phase I/IIa clinical trial: safety and tolerability. The class given is in vivo, human. Particulars: HIV patients, SC twice weekly, 1% poloxamer 188 and 9% lactose formulation; preliminary results. From the text:
Patients are monitored for adverse events (AE) of the INS peptide such as rash, acute allergic reaction, bronchospasm, respiratory distress, and acute vascular leak syndrome. If a severe administration related reaction occurs, the drug administration is stopped. Blood chemistry, hematology, coagulation, and urinalysis are repeated on Days 1, 4, 8, 11, 15, 18, 22, 25 at the clinic visits.
The primary safety endpoint is the frequency, severity, and duration of side effects. Number of participants with treatment-related adverse events as assessed by CTCAE v4.03, are evaluated though study completion. Main adverse events evaluation is based on DADS Toxicity criteria (Division of AIDS DADS Table for Grading the Severity of Adult and Paediatric Adverse Events, Corrected Version 2.1): • Viral load • Lymphopenia/Neutropenia • Immuno-reaction over reaction/cytokine storm • Infection surrounding the administration site • Liver function (lab tests) • Kidney function (lab tests)
Incidence of withdrawal (drop-out rate) due to side effects is evaluated throughout the study.

In data set [3] the test system is 1975 human lung cancer cells. In words: Lung cancer tumor mice model. The class given is in vivo, athymic nude mice. The settings on record: INS HCL and tumor-targeted lentiviral particles; lung cancer and pancreatic cancer models. Here is the method:
Two models of cancer were generated: lung cancer and pancreatic cancer. About 5×10^6 of 1975 human lung cancer cells per 0.1 ml PBS per mouse were injected to male 7 weeks old athymic nude mice (n=30). The cells were injected, subcutaneously at one site on the back of the mice. About 5×10^6 PANC-1 human pancreatic cancer cells per 0.1 ml PBS per mouse were injected to male 7 weeks old athymic nude mice (n=22). The cells were injected, subcutaneously at one site on the back of the mice. When tumors were palpable (˜0.3-0.5 cm^3), the mice were randomly divided into three groups (Table 27) and the viruses and/or peptides were injected, twice a week for two weeks.
The first day of the study was defined as ‘Day 1’. The animals were administrated IP with either Vehicle (PBS or Formulation), lentiviral particles and SC with test items according to Table 27 on days 1, 4, 8 and 11. Body weight and tumor volume were checked on days 3, 7, 11, 14 and 17 (the latter was measured with a caliper). At the end of the experiment, on day 17, the mice were anesthetized and then sacrificed, and the tumors were removed, as well as lung, spleen, kidney and liver.

Data set [4] can be described thus: Stability study of lyophilized formulation after reconstitution. It is filed as physicochemical. How it is done:
To obtain an isotonic solution having desired osmolality of about 300-330 mOsm/kg, the poloxamer percentage was reduced to 0.8% and the lactose percentage was reduced to 9.5%. The solution formulation F45 was prepared in a 40 ml clear glass vial according to Table 20. The pH was adjusted by NH4OH. […]
The physical and chemical stability of lyophilized powder obtained in Example 10 was investigated. The lyophilized powder was stored at −20° C. […] Formulations before filtration were used as a control (initial state) at each time point. […] At the time point: 0 h, 24 hours and 7 days appearance, pH and osmolarity were tested and the solutions were analyzed by HPLC for the presence of degradation. The recovery percent after filtration was also calculated. To investigate short-term in-use stability, additional 218 mg of lyophilized material was reconstituted, and the solution was stored at room temperature for 4 hours. […]

A short description of data set [5]: Preliminary solubility test of INS peptide salts in co-solvents and water. It is filed as physicochemical. The settings on record: for solubility: read-out: Approximate Solubility; for Solubility in PBS: physiological conditions. Here is the method: Solubility of different INS peptide salts was measured in several co-solvents and in water.

Like-named read-outs stand apart in the source and are kept apart here. No end group written: not given here.

A word on the solubility: it is the dissolved amount per volume that the medium holds. Consider WTAVQMAVFIHNFKRK [INS HCl], for which, in data set [1], the “Stability in formulations” value is given as “high stability in all formulations”. In addition, the “Safety and tolerability” value in data set [2] is “safe and well tolerable”. Moreover, in data set [3], the “Decrease in growth of tumors” value is given as “up to 50%”. Further, the “Peptide adsorbed to PES filters” value in data set [4] (PES filters) was “about 30%”. Further, in data set [4] (room temperature, no significant difference in comparison to control), the “Time stable at room temperature after reconstitution” value is “at least 4 hours”. The solubility in data set [5] (DMSO) was not above 10 mg/mL. The “Appearance in H2O” value in data set [5] (H2O) is on record as “slightly opalescence”. Also, in data set [5] (H2O, 10 mg/ml), the “pH in H2O” value is recorded as 2.60. Besides, in data set [5] (PBS), the “Approximate Solubility” value is “Not soluble” and the “Solubility in PBS” value is given as “practically insoluble”. Further, in data set [5] (PEG400), the “Solubility in PEG400” value is listed as “poor solubility” and the solubility is less than 5 mg/mL. The “Appearance in propylene glycol” value in data set [5] (Propylene glycol (PG), 5mg/ml) is “clear solution”. Also, in data set [5] (ethanol), the “Solubility in ethanol” value was “poor solubility” and the solubility is less than 5 mg/mL. Moreover, the solubility in data set [5] (propylene glycol (PG)) was in the range of 5 to 10 mg/mL. For the same sequence, the “Solubility in PG” value in data set [5] (propylene glycol, a clear solution was obtained) is “moderate solubility”. Moreover, in data set [5] (water), the “Appearance of solution in water” value is listed as “solution with opalescence” and the “pH of solution in water” value is reported as 2.6. Also, the solubility in data set [5] (water, pH 2.6, H2O) was more than 10 mg/mL.

WTAVQMAVFIHNFKRK [INS TFA]: the “Concentration dissolved in DMSO” value in data set [5] (DMSO) was not above 10000 µg/mL. Moreover, the “Behaviour upon dilution in PBS” value in data set [5] (solution in water or DMSO diluted in PBS) is on record as “precipitated”. Besides, the “Concentration dissolved in water” value in data set [5] (water) was not above 10000 µg/mL.

As to WTAVQMAVFIHNFKRK [INS acetate], in data set [5] (DMSO), the “Solubility in DMSO” value is “completely insoluble”. In addition, the “Solubility in PBS” value in data set [5] (PBS) was “completely insoluble”. Moreover, the “pH above which the dissolved salt precipitated” value in data set [5] (dissolved in low pH, pH raised) is reported as “above 4”. For the same sequence, the “Solubility in water” value in data set [5] (water) is “soluble”.

Values taken from patent publication US20220233652A1, “Pharmaceutical Compositions Comprising Integration-Promoting Peptides” (priority 2018, published 2022).
